Paper PMC4955970, “Stable, synthetic analogs of diadenosine tetraphosphate inhibit rat and human P2X3 receptors and inflammatory pain” (Molecular Pain, 2016)
Entries after “also recorded” stand apart in the source; their conditions may differ.

Assays:
Assay type in all cases: cell-based
[1] = target: T1, rat P2X2 receptors (Rattus norvegicus, UniProt P49653); assay: Whole-cell patch clamp on HEK293 cells expressing rat P2X2 receptors (ATP-induced currents); details: 1 µM; 10 µM ATP every 2 min
T1 construct: expressed in transfected cells; host or cells: HEK293
T1 sequence (P49653 1-472): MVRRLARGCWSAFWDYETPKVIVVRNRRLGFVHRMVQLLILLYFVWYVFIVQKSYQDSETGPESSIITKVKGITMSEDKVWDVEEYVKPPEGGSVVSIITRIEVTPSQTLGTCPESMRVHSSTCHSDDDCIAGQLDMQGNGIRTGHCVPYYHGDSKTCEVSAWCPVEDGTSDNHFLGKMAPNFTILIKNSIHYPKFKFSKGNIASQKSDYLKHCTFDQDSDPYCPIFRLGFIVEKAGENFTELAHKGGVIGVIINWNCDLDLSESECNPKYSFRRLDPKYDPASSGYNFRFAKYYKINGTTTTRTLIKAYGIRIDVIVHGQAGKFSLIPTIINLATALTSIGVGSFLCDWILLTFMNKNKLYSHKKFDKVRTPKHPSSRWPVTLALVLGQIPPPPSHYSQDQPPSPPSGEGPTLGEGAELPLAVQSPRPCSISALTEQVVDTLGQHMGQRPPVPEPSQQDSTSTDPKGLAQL

[2] = target: T2, human P2X3 receptors (hP2X3Rs) (Homo sapiens, UniProt P56373); assay: Whole-cell patch clamp on HEK293 cells expressing recombinant human P2X3Rs
T2 construct: transfected with rat or human full-length P2X3 cDNA subcloned into pIRES2-EGFP; expressed in transfected cells; host or cells: HEK293T (HEK293 in the results)
T2 sequence (P56373 1-397): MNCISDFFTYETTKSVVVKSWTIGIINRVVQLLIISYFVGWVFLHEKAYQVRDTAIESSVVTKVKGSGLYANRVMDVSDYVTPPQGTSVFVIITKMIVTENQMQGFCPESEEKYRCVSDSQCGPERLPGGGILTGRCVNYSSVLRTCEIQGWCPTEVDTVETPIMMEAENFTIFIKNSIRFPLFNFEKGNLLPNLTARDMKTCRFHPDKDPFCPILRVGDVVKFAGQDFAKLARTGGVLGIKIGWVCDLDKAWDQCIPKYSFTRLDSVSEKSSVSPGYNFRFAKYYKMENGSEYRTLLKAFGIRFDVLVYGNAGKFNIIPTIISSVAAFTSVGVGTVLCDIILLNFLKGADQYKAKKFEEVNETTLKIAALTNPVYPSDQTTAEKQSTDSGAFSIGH
Experimental: Rat trigeminal, nodose, or dorsal root ganglion (TG, NG, and DRG, respectivley) neurons in culture were prepared as described previously.[46],[47] Neurons were plated on poly-L-lysine (0.2 mg/ml)-coated Petri dishes and cultured for one to two days under an atmosphere containing 5% CO2. Cells were used within two days of plating when they lacked processes. HEK293T cells were prepared as reported previously[32],[48] and transfected with rat or human full-length P2X3 cDNA subcloned into pIRES2-EGFP (Clontech, Mountain View, CA, USA).
TG, NG, DRG, or HEK cells were recorded in the whole-cell configuration while being continuously superfused (at 2 ml/min) with control solution containing (in mM): 152 NaCl, 5 KCl, 1 MgCl2, 2 CaCl2, 10 glucose, and 10 HEPES; pH was adjusted to 7.4 with NaOH and osmolarity was adjusted to 320 mOsM with glucose. […] Responses to selective P2X3R agonist α,β-methylene-ATP (α,β-meATP; resistant to ectoATPase hydrolysis, Sigma-Aldrich) were measured using an EPC-9 amplifier operated by HEKA Patch Master software (HEKA Electronik, Germany). Cells were voltage-clamped at −70 mV. In most cells, series resistance was compensated by 80%. To determine EC50 values, dose-response curves were constructed for α,β-meATP by administering different agonist doses same cells and fitting data to a logistic equation (Origin 8.0, Microcal, Northampton, MA).
Agonists and antagonists were applied (usually for 2 s) via a rapid superfusion system (Rapid Solution Changer RSC-200; BioLogic Science Instruments, Grenoble, France) placed 100 to 150 µm near the cell. The time for the solution exchange across the cell was approximately 30 ms, as judged with liquid junction potential measurements. All chemicals, including enzymes for cell culture, were from Sigma-Aldrich (St. Louis, MO). […]
The peak amplitudes of the responses were measured using HEKA Patch Master software. […] All data are presented as mean ± SEM (n = the number of cells) with statistical significance assessed by paired t-test (for parametric data) or Mann-Whitney rank-sum test (for nonparametric data). […]

[3] = target: T3, rat P2X4 receptors (Rattus norvegicus, UniProt P51577); assay: Whole-cell patch clamp on HEK293 cells expressing rat P2X4 receptors (ATP-induced currents); details: 1 µM; 10 µM ATP every 2 min
T3 construct: expressed in transfected cells; host or cells: HEK293
T3 sequence (P51577 1-388): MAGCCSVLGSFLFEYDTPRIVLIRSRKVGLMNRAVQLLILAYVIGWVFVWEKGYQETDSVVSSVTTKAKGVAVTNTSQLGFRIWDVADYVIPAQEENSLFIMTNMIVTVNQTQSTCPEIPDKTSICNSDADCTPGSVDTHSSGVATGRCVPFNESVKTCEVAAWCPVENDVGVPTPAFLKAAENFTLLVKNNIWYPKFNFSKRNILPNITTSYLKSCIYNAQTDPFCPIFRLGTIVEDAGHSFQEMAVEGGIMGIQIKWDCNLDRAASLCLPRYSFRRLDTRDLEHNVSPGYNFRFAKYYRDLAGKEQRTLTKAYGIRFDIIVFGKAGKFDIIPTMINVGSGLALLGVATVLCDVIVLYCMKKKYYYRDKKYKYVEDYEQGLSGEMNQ

In the case of Nc1ncnc2c1ncn2[C@@H]1O[C@H](COP(=O)(O)OP(=O)(O)NP(=O)(O)OP(=O)(O)OC[C@H]2O[C@@H](n3cnc4c(N)ncnc43)[C@H](O)[C@@H]2O)[C@@H](O)[C@H]1O [AppNHppA, diadenosine 5′,5′′′-P^1,P^4-(β,γ-imido)tetraphosphate], the “HAD or partial agonism effect on P2X2R-mediated currents” value [1] is reported as “did not produce any HAD or partial agonism effects; also recorded: does not inhibit”, the remaining activity at 1 µM ([2]; HEK293, read-out: α,β-meATP test currents, % of control) is reported as 12 ± 4% and the remaining activity at 0.1 µM ([2]; HEK293, read-out: α,β-meATP test responses, % of control) is reported as 48 ± 8%. The activity at 0.01 µM ([2]; HEK293, read-out: α,β-meATP-activated currents, % of control values) was 80 ± 5% and the “HAD or partial agonism effect on P2X4R-mediated currents” value [3] was “did not produce any HAD or partial agonism effects; also recorded: does not inhibit”.
